# Results: patent US11484601B2, “Targeting M2-like tumor-associated macrophages by using melittin-based proapoptotic peptide” (TWI[…]., priority 2018, dated 2022)
# Columns and labels:
# [1] = system: CD31+ endothelial cells of LLC tumors; test: CD31 immunofluorescence staining of tumor endothelial cells; type: in vivo, mouse; settings: LLC tumor sections
# Description: CD31 (PECAM-1) is […] the vascular endothelium, and is well-known as a marker that may indicate angiogenesis. The angiogenesis in tumors is essential means to supply oxygen and nutrients to areas at a low oxygen level in the tumor and thus is closely related to cancer growth and metastasis. M2-type macrophages are major precursors of angiogenic factors, and contain cyclooxygenase-2, matrix metalloproteinase-9 and VEGF. The density of macrophage is related to angiogenesis. Therefore, immunostaining was performed and a confocal device was used to identify whether a decrease in the M2-type tumor-associated macrophage (TAM) in a tumor causes a decrease in angiogenesis.
# More specifically, the tissue was […] with paraformaldehyde for 24 hours. Then, the tissue was cut into sections having 4 μm thickness using a rotary microtome, which in turn was restored via autoclaving under pressure for 1 minute with tri-sodium citrate buffer. […] After the staining, the sections were mounted on and analyzed using a laser scanning confocal microscope (Carl Zeiss). All images are taken using LSMS PASCAL, and fluorescence values were analyzed using ImageJ software.
# [2] = MTS cell viability assay, M2-type macrophage; type: cell-based, mouse; settings: mouse, M2 macrophage, 0.6 to 0.5 μM, reaction for 24 hours
# Protocol: (§1) More specifically, dKLA (SEQ ID NO: 2), MEL (SEQ ID NO: 1), MEL-dKLA (SEQ ID NO: 3; […]-d[KLAKLAKKLAKLAK]) peptide and 5-carboxyl tetramethylrhodamine (TMR)-conjugated dKLA, MEL and MEL-KLA peptides were purchased from GenScript (Piscataway, N.J., USA). TMR was conjugated with the amino group located at the N-terminal of the peptide. Regarding all of the peptides, 95% or greater purified peptides were used. Murine Lewis lung carcinoma (LLC) cells and macrophage RAW264.7 of mice were cultured in Dulbecco's modified Eagle's medium (DMEM; Welgene, Korea) to which 10% heat-inactivated fetal bovine serum (Welgene), 100 U/mL penicillin and 100 μg/mL streptomycin (Invitrogen, CA, USA) were added. Macrophage (RAW264.7) differentiated into M2-type was treated with IL-4 and IL-13 in the medium for 24 hours. After the treatment, the cells were cultured in a state in which serum was insufficient for 48 hours. M1-type macrophage was treated with 1 ng/mL of LPS for 24 hours to induce differentiation.
# (§2) The cell viability test was measured via the MTS assay. RAW264.7 macrophage was differentiated into M1-type or M2-type macrophage which was inoculated onto a 96-well plate at 3×10^4 cells/well. The next day, the macrophage was treated with each of PBS, dKLA, MEL and MEL-dKLA. After 24 hours, the culture solution was replaced and the cell was treated with 20 μL MTS reaction solution (Promega, WI, USA), followed by reaction at 37° C. Then, […] was measured at 490 nm to measure cell viability.
# (§3) The MEL-DM1 anticancer drug conjugation method and cell test method are as described above.
# [3] = system: M2 macrophage (RAW264.7 differentiated into M2-type with IL-4 and IL-13); test: MTS cell viability assay, M2-type macrophage; type: cell-based, mouse; settings: 24 hours, read-out: half-maximal inhibitory concentration (IC50) against M2 macrophage
# Protocol: as §1, §2, §3
# [4] = system: M1-type tumor-associated macrophage (CD45+F4/80+CD86+); test: Flow cytometry of tumor tissue, M1-type TAM; type: in vivo, mouse; settings: MEL vs PBS and dKLA groups; MEL-dKLA vs MEL group
# Protocol: More specifically, the tumor cells were thinly crushed and separated from each other in DMEM to which DNasel (1 U/mL) and collagenase D (1 mg/mL) were added. The tissue was gently agitated for 1 hour at 37° C., and separated using a […] nylon mesh filter. Red blood cells were dissolved in Phrmlyse buffer (BE bioscience). Individual cells passed through a 40-μm nylon mesh filter and then were stained with following antibodies: CD4+ T cell (CD45+CD4+CD8−), CD8+ T cell (CD45+CD4−CD8+), Foxp3+ regulatory T cell (CD4+CD25+Foxp3+), dendritic cell (CD45+CD11b+CD11c+), and M1 (CD45+F4/80+CD86+) or M2 macrophage (CD45+F4/80+CD206+): anti-CD45-FITC, anti-CD4-phycoerythrin (PE), anti-CD8-allophycocyanin (APC), anti-CD4-FITC, anti-CD25-PE, anti-Foxp3-Alexa Fluor647, anti-CD11b-APC, anti-CD11c-APCcy7, anti-Grl-PEcy7, anti-CD86-PEcy7, and anti-CD206-APC antibodies. Annexin-V was previously treated to measure the cell percentage of macrophages.
# [5] = system: M1 macrophage; test: Annexin V-FITC / MitoTracker flow cytometry, M1 macrophage; type: cell-based, mouse; settings: 0.8 μM peptide
# Protocol: More specifically, the cells were stained with Annexin V-fluorescein isothiocyanate (FITC; BD Biosciences, CA, USA) and MitoTracker RedBOX (Invitrogen). The cells were inoculated at 5×10^5 cells/well, onto a 24-well plate. The next day, 0.8 μM peptide was applied thereto. In 1, 3 and 6 hours after the application, the cells were reacted with 250 nM MitoTracker for 1 hour in a serum-free culture solution. Thereafter, the cells were collected and reacted with Annexin V again. The reacted cells were measured with BD FACSCalibur, and were analyzed via FlowJo software (Treestar, Inc., CA, USA). MitoTracker could pass through protoplasmic membrane depending on the membrane charge and then accumulated within the mitochondria. In other words, staining may be identified in the mitochondria membrane of living cells, but staining may be difficult in cells where apoptosis occurs due to membrane disturbance.
# [6] = MTS cell viability assay, M1-type macrophage; type: cell-based; settings: mouse, RAW264.7 macrophages differentiated into M1-type with LPS, 0.6 to 0.8 μM
# Protocol: as §1
# as §2, with “After 24 hours, the culture solution was replaced and the cell was treated with 20 μL MTS reaction solution (Promega, WI, USA), followed by reaction at 37° C.” left out
structure (smiles),measurement,setting,value
CC[C@H](C)[C@H](NC(=O)CN)C(=O)NCC(=O)N[C@@H](C)C(=O)N[C@H](C(=O)N[C@@H](CC(C)C)C(=O)N[C@@H](CCCCN)C(=O)N[C@H](C(=O)N[C@@H](CC(C)C)C(=O)N[C@H](C(=O)N[C@H](C(=O)NCC(=O)N[C@@H](CC(C)C)C(=O)N1CCC[C@H]1C(=O)N[C@@H](C)C(=O)N[C@@H](CC(C)C)C(=O)N[C@H](C(=O)N[C@@H](CO)C(=O)N[C@@H](Cc1c[nH]c2ccccc12)C(=O)N[C@H](C(=O)N[C@@H](CCCCN)C(=O)N[C@@H](CCCNC(=N)N)C(=O)N[C@@H](CCCCN)C(=O)N[C@@H](CCCNC(=N)N)C(=O)N[C@@H](CCC(N)=O)C(=O)N[C@@H](CCC(N)=O)C(N)=O)[C@@H](C)CC)[C@@H](C)CC)[C@@H](C)O)[C@@H](C)O)C(C)C)C(C)C [MEL],CD31+ endothelial cells (blood vessel density),[1],significant decrease
same,viability at 24 h,[2],71 to 79%
same,IC50,[3],0.6 to 0.8 µM
same,F480+ CD86+ M1-type tumor-associated macrophage in tumor,[4],slightly increased
same,Annexin V / MitoTracker staining effect on M1 macrophage,[5]; 1 to 3 hours,the effect did not appear
same,Annexin V / MitoTracker staining change in M1 macrophage,[5]; 6 hours,no significant change
same,viability at 24 h,[6],74%
